This note sets out measurements from patent publication US20170354177A1, “ANTIFUNGAL COMPOSITION COMPRISING ANTIFUNGAL PEPTIDE AND TERPENE ALCOHOL” (MARUHA NICHIRO CORPORATION, priority 2014, published 2017).

Structures are written as SMILES.

The test system of experiment [1] is Candida albicans TIMM1768. Put plainly: In vitro screening of material performing synergistic effect (10 min contact, crystal violet staining, absorbance 620 nm). The class given is cell-based. Conditions: for synergistic effect by the combined use with a protamine hydrolysate: combined with protamine hydrolysate 0.125 or 2.0 mg/mL; for antibacterial activity in single use (relative absorbance, blank = 1): 0.008-1 mg/mL. An excerpt: Candida albicans TIMM1768
Hinokitiol (manufactured by Kiseitech Co., Ltd.), terpinen-4-ol (manufactured by Tokyo Chemical Industry, Co., Ltd.), geraniol (manufactured by Kanto Chemical Co., Inc.), menthol (manufactured by Wako Pure Chemical Industries, Ltd.), cinnamaldehyde (manufactured by Wako Pure Chemical Industries, Ltd.) and capric acid (manufactured by Wako Pure Chemical Industries, Ltd.) were individually dissolved in RPMI medium so that the concentration in a test material was 0.008, 0.04, 0.2, 1 mg/mL, and the protamine hydrolysate prepared according to Example 1 was dissolved so that the concentration of the protamine hydrolysate in a test material was 0, 0.125, 2.0 mg/mL, and the solutions were subjected to the test. Further, 0.002, 0.008, 0.031, 0.125, 0.5, 2, 8, 32 mg/mL solutions using the protamine hydrolysate singly were subjected to the test. Evaluation method
C. albicans TIMM1768 strain was added to a 96 well microplate each in an amount of 200 μL so that 2.5×10^5 cells/well, and cultured for 2.5 to 3.5 hours at 37° C. under 5% CO2. After cultivation, each medium was removed under suction, and each test material was added in an amount of 200 μL/well. After allowing to stand still at 37° C. for 10 minutes, each sample solution was removed under suction, and RPMI medium was added in an amount of 200 μL/well, and cultured for 2.5 hours at 37° C. under 5% CO2. After cultivation, each sample was stained with crystal violet and the absorbance at 620 nm was measured. The antibacterial activity was expressed in terms of the relative value of each experimental section when the blank absorbance was 1.
The results of in vitro evaluation when using a protamine hydrolysate and terpene alcohols in combination are shown in FIGS. 1 to 6, and the result of in vitro evaluation when using a protamine hydrolysate singly is shown in FIG. 7. In FIGS. 1 to 6, ♦ represents the result of single use of terpene alcohols, ▪ represents the result of the combined use with a protamine hydrolysate 0.125 mg/ml, and ▴ represents the result of the combined use with a protamine hydrolysate 2.0 mg/ml, respectively.

Experiment [2] relates to Candida albicans TIMM1768. Put plainly: In vitro combined use of protamine hydrolysate and Hinokitiol (16 h culture, crystal violet), IC90 and FIC index. The class given is cell-based. Conditions: TIMM1768, Pro 0, none printed in the table, read-out: IC90 of hinokitiol alone.
Protocol: FIC index=A1/A0+B1/B0 (1) • A0: MIC when agent A is used alone • A1: MIC of agent A when agent A and agent B are used in combination • B0: MIC when agent B is used alone • B1: MIC of agent B when agent A and agent B are used in combination Evaluation of synergistic effect by FIC index • FIC≦0.5: synergistic effect • 0.5<FIC≦1.0: additive effect • 1.0<FIC≦2.0: no relation • 2.0<FIC: antagonistic effect
Hinokitiol (manufactured by Kiseitech Co., Ltd.) was dissolved in RPMI medium so that the concentration in each test material was 0, 0.004, 0.008, 0.016, 0.031, 0.063, 0.125, 0.25, 0.5, or 1 μg/mL, and the protamine hydrolysate prepared according to Example 1 was dissolved so that the concentration of the protamine hydrolysate in each test material was 0, 0.156, 0.313, 0.625, 1.25, 2.5, 5, or 10 μg/mL, and they were subjected to the test.
C. albicans TIMM1768 strain was diluted with RPMI medium so that 5.0×10^3 cells/m L, then, added to a 96 well microplate each in an amount of 100 μL. The protamine hydrolysate solution was added each in an amount of 50 μL/well, then, Hinokitiol was added each in an amount of 50 μL/well. After cultivation for 16 hours at 37° C. under 5% CO2, each sample was stained with crystal violet and the absorbance at 620 nm was measured.

With `O=CC=Cc1ccccc1` [Cinnamaldehyde, cinnamaldehyde, reference compound], in experiment [1], the “synergistic effect by the combined use with a protamine hydrolysate” value (“synergistic effect by the combined use” for short) is listed as “the synergistic effect by the combined use with a protamine hydrolysate was not recognized” and the “antibacterial activity in single use (relative absorbance, blank = 1)” value is “little antibacterial activity”.

Consider `CC(C)c1cccc(=O)c(O)c1` [Hinokitiol], for which the IC90 in experiment [2] was 0.77 µg/mL. Moreover, in experiment [1], the “synergistic effect by the combined use” value is “a synergistic effect of improving activity by the combined use with a protamine hydrolysate was recognized” and the “antibacterial activity in single use (relative absorbance, blank = 1)” value is given as “showed an antibacterial activity even in the single use”.

Turning to `CCCCCCCCCC(=O)O` [capric acid, reference compound], in experiment [1], the “synergistic effect by the combined use” value is given as “the synergistic effect by the combined use with a protamine hydrolysate was not recognized” and the “antibacterial activity in single use (relative absorbance, blank = 1)” value is listed as “little antibacterial activity”.

As for `CC(C)=CCC/C(C)=C/CO` [geraniol], in experiment [1], the “synergistic effect by the combined use” value is on record as “the activity was slightly improved by the combined use with a protamine hydrolysate” and the “antibacterial activity in single use (relative absorbance, blank = 1)” value was “low activity”.

As to `CC1CCC(C(C)C)C(O)C1` (stereo not shown) [menthol], in experiment [1], the “synergistic effect by the combined use” value was “the activity was slightly improved by the combined use with a protamine hydrolysate” and the “antibacterial activity in single use (relative absorbance, blank = 1)” value is “low activity”.

On to `CC1=CCC(O)(C(C)C)CC1` (stereo not shown) [terpinen-4-ol], for which, in experiment [1], the “synergistic effect by the combined use” value was “the activity was slightly improved by the combined use with a protamine hydrolysate” and the “antibacterial activity in single use (relative absorbance, blank = 1)” value is reported as “low activity”.

Broadly, the IC90 is the point of the concentration-response curve where the effect stands at 90%.
